# PMC12974487, “Inhibition of FicD-mediated AMPylation and deAMPylation by isoprenoid diphosphates” (Proceedings of the National Academy of Sciences of the …, 2026)
# “Also recorded” adds a separate entry of the source.
# Experiments:
# [1] = tested on: Glutathione S-transferase (GST); test: DSF specificity control with GST; type: binding; details: same concentrations as measured for FicD
# Source text: To ensure specificity of binding to the FicD enzyme, we performed DSF with Glutathione S-transferase (GST) and BiP in the presence of the same increasing metabolite concentrations. […] Like FicD, BiP is an ATP/Mg^2+ dependent protein that could potentially leverage the same binding mode as GPP/FPP. […]
# across samples. Extremely low or missing values were floored to metabolite-specific limits of detection. For each dialysis replicate, log₂-transformed abundances were computed, and log₂(fold change) was calculated as the difference between protein and metabolite chambers. Injection replicates were averaged prior to fold-change calculation. Dialysis replicates with missing chamber measurements were excluded. Technical replicates were retained for outlier detection. Metabolites dominated by noise were removed based on comparison of a null model (intercept only) versus a protein-specific model and RMSE > 0.5 across dialysis replicates. Remaining metabolites were classified as “protein signal” and retained for analysis. For each metabolite–protein pair, up to one extreme outlier was removed using a z-score cutoff of 4. Dialysis replicates were then averaged to yield a consensus fold-change per protein–metabolite pair. […]
# [2] = target: AvrB (Pseudomonas savastanoi pv. glycinea, UniProt P13835); test: Rhamnosylation of GST-Rin4 by AvrB; type: biochemical, Pseudomonas syringae
# Method: Finally, we explored the inhibitory effects of GPP/FPP on other Fido proteins to see if these metabolites could serve as generic inhibitors of Fido domains. To test this specificity, we performed in vitro activity assays with GPP/FPP and two constitutively active Fido proteins from bacteria: VopS from Vibrio parahaemolyticus ([25]) and AvrB from Pseudomonas syringae ([30]).
# (250mM Tris pH 6.8, 10% Sodium dodecyl sulfate, 50% glycerol, 50mM DTT, 0.05% Bromophenol blue) and heated at 98°C for 5 minutes.
# Rhamnosylation assays were performed as previously described (2). Briefly, AvrB and GST-Rin4 were combined in the presence of GPP or FPP, where applicable. Reactions were started by the addition of UDP-Rhamnose at a final concentration of […] and reactions were incubated for 1 hour at room temperature. Reactions were stopped by the addition of 5X SDS sample buffer […]
# Equal volumes of samples suspended in 5X SDS sample buffer were resolved on hand-cast 10% 1.5mm Tris-Glycine gels with the BioRad Mini-PROTEAN Tetra Cell system. […]
# Intact mass analysis of proteins was performed by the UT Southwestern Proteomics Core. Intact protein samples were analyzed by LC/MS, using a Sciex X500B QTOF mass spectrometer operating in positive ion mode, coupled to an Agilent 1290 Infinity II HPLC. […]
# AvrB, sequence (P13835 whole entry, the tested form may be a part): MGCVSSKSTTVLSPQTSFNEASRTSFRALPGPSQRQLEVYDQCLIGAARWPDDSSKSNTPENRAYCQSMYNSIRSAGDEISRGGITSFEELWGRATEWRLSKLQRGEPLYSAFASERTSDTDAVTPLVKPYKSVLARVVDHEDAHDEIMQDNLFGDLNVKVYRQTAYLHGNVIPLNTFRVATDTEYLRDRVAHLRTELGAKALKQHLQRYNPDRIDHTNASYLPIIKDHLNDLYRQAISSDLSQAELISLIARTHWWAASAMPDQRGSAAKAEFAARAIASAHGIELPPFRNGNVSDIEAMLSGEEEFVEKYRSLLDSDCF
SMILES,change in GST melt curves or Tm [1],effect on rhamnosylation activity of AvrB [2]
"CC(C)=CCC/C(C)=C/COP(=O)(O)OP(=O)(O)O [GPP, geranyl-pyrophosphate]",Neither GPP nor FPP elicited a change,Neither GPP nor FPP affected
"CC(C)=CCC/C(C)=C/CC/C(C)=C/COP(=O)(O)OP(=O)(O)O [FPP, farnesyl-pyrophosphate]",Neither GPP nor FPP elicited a change,Neither GPP nor FPP affected; also recorded: not inhibited
